Tested on: Staphylococcus aureus or Streptococcus species
Test: Murine Assay: in vivo antimicrobial activity, survival of mice infected intraperitoneally with bacteria
Details: not given
Method: Antimicrobial activity was tested in vivo using the Murine Assay procedure. Groups of female mice (six mice of 18-20 grams each) were injected intraperitoneally with bacteria which were thawed just prior to use and suspended in brain heart infusion with 4% brewers yeast (Staphylococcus aureus) or brain heart infusion (Streptococcus species). Antibiotic treatment at six dose levels per drug was administered one hour and five hours after infection by either oral intubation or subcutaneous routes. Survival was observed daily for six days. ED50 values based on mortality ratios were calculated using probit analysis. The subject compounds are compared against well-known antimicrobials vancomycin and U-100592 as controls. See “Upjohn Oxazolidinone Antibacterial Agent”, posters presented at the 35th Interscience Conference on Antimicrobial Agents and Chemotherapy.

`COC(=O)N1CC=C(c2ccc(N3C[C@H](CNC(C)=O)OC3=O)cc2F)CC1` [Example 57, (S)-(−)-4-[4-[5-[(Acetylamino)methyl]-2-oxo-3-oxazolidinyl]-2-fluorophenyl]-3,6-dihydro-1(2H)-pyridinecarboxylic acid methyl ester] gave an ED50 of 6.2 mg/kg.

Same assay, conditions: Table 1; female mice; treatment 1 h and 5 h after infection, oral intubation or subcutaneous; survival over six days; probit analysis of mortality ratios

`CC(=O)NC[C@H]1CN(c2ccc(C3(C)CN(C(=O)CO)C3)c(F)c2)C(=O)O1` [Example 16, (S)-N-[[3-[3-Fluoro-4-[1-(hydroxyacetyl)-3-(3-methyl)azetidinyl]-phenyl]-2-oxo-5-oxazolidinyl]methyl]-acetamide] and `CC(=O)NC[C@H]1CN(c2ccc(C3(C)CN(C(C)=O)C3)c(F)c2)C(=O)O1` [Example 10, (S)-N-[[3-[3-Fluoro-4-[1-acetyl-3-(3-methyl)-azetidinyl]-phenyl]-2-oxo-5-oxazolidinyl]methyl]-acetamide] are within 1.5-fold of each other in “ED50” value: 17.00 mg/kg for the first, 20.00 mg/kg for the second.

In the case of `CC(=O)NC[C@H]1CN(c2ccc(C3(C)CN(C=O)C3)c(F)c2)C(=O)O1` [Example 5, (S)-N-[[3-[3-Fluoro-4-[1-(formyl)-3-(3-methyl)-azetidinyl]-phenyl]-2-oxo-5-oxazolidinyl]methyl]-acetamide], the “ED50” value was 3.60 mg/kg.

In the case of `COCC(=O)N1CC(C)(c2ccc(N3C[C@H](CNC(C)=O)OC3=O)cc2F)C1` [Example 4, (S)-N-[[3-[3-Fluoro-4-[1-(methoxyacetyl)-3-(3-methyl) -azetidinyl]-phenyl]-2-oxo-5-oxazolidinyl]methyl]-acetamide], the “ED50” value was greater than 20.00 mg/kg.

Same assay, conditions: Table 1; female mice; treatment 1 h and 5 h after infection, oral intubation or subcutaneous; survival over six days; probit analysis of mortality ratios; read-out: ED50

Compared with `CC(=O)NC[C@H]1CN(c2ccc(C3=CCN(C(=O)COC(C)=O)CC3)c(F)c2)C(=O)O1` [Example 39, (S)-(−)-N-[[2-Oxo-3-[3-fluoro-4-[-1-[(acetoxy)acetyl]-3,6-dihydro-2H-pyridin-4-yl]phenyl]-5-oxazolidinyl]methyl]acetamide], `CC(=O)NC[C@H]1CN(c2ccc(C3CCN(C(=O)c4ccno4)CC3)c(F)c2)C(=O)O1` [Example 24, (S)-(−)-N-[[3-[4-[1-(Isoxazole-5-carbonyl)-4-piperidinyl]-3-fluorophenyl]-2-oxo-5-oxazolidinyl]methyl]acetamide] is higher in ED50: 3 mg/kg for the first, greater than 20 mg/kg for the second.

Work on `CC(=O)NC[C@H]1CN(c2ccc(C3CCN(C(=O)c4cc5ccccc5[nH]4)CC3)c(F)c2)C(=O)O1` [Example 23, (S)-(−)-N-[[3-[4-[1-(Indole-2-carbonyl)-4-piperidinyl]-3-fluorophenyl]-2-oxo-5-oxazolidinyl]methyl]acetamide] yielded an ED50 greater than 20 mg/kg.

Same assay, conditions: Table 2; female mice; treatment 1 h and 5 h after infection, oral intubation or subcutaneous; survival over six days; probit analysis of mortality ratios

Compared with “(5S)-N-[[3-[3-Fluoro-4-[1-(formyl)-3-pyrrolidinyl]phenyl]-2-oxo-5-oxazolidinyl]methyl] [Example 45]”, “(S)-(−)-N-[[3-[3-Fluoro-4-(dihydrothien-3-yl)-phenyl]-2-oxo-5-oxazolidinyl]methyl]acetamide [Example 67]” is 4.8-fold higher in “ED50” value: 2.80 mg/kg for the first, 13.3 mg/kg for the second.

With `CC(=O)NC[C@H]1CN(c2ccc(C3=CCN(C=O)CC3)c(F)c2)C(=O)O1` [Example 56] the “ED50” value was 4.40 mg/kg.

Same assay, conditions: Table 2; female mice; treatment 1 h and 5 h after infection, oral intubation or subcutaneous; survival over six days; probit analysis of mortality ratios; read-out: ED50

First: CC(=O)NC[C@H]1CN(c2ccc(C3=CCS(=O)(=O)C3)c(F)c2)C(=O)O1 [69(a), (S)-N-[[3-[3-Fluoro-4-(2,5-dihydro-1,1-dioxido-3-thienyl)-phenyl]-2-oxo-5-oxazolidinyl]methyl]acetamide]
Second: CC(=O)NC[C@H]1CN(c2ccc(C3=CC[S+]([O-])C3)c(F)c2)C(=O)O1 (stereo partly drawn) [68(a), (5S)-N-[[3-[3-Fluoro-4-(2,5-dihydro-1-oxido-3-thienyl)-phenyl]-2-oxo-5-oxazolidinyl]methyl]acetamide]
The ED50 of the first is 2.9-fold higher: 10 mg/kg for the first, 3.5 mg/kg for the second.

First: CC(=O)NC[C@H]1CN(c2ccc(C3CCOCC3)cc2)C(=O)O1 [Example 53, (S)-(−)-N-[[3-[4-[Tetrahydro-2H-pyran-4-yl]phenyl]-2-oxo-5-oxazolidinyl]methyl]acetamide]
Second: CC(=O)NC[C@H]1CN(c2ccc(C3CN(C=O)C3)c(F)c2)C(=O)O1 [Example 84, (S)-N-[[3-[3-Fluoro-4-[1-(formyl)-3-azetidinyl]phenyl]-2-oxo-5-oxazolidinyl]methyl]acetamide]
The ED50 of the first is higher: greater than 20 mg/kg for the first, 6.5 mg/kg for the second.

Going from `CC(=O)NC[C@H]1CN(c2ccc(C3(F)CCN(C=O)CC3)c(F)c2)C(=O)O1` [Example 74, (S)-(−)-N-[[3-[4-[1-Formyl-4-fluoro-4-piperidinyl]-3-fluorophenyl]-2-oxo-5-oxazolidinyl]methyl]acetamide] to `CC(=O)NC[C@H]1CN(c2ccc(C3=CCN(C(=O)COC(C)=O)CC3)cc2)C(=O)O1` [Example 59, (S)-(−)-N-[[2-Oxo-3-[4-[1-[(acetoxy)acetyl]-3,6-dihydro-2H-pyridin-4-yl]phenyl]-5-oxazolidinyl]methyl]acetamide], the ED50 falls from 10.3 mg/kg to 4.2 mg/kg (2.5-fold).

Tested on: not given
Test: not given
Details: not given

Molecule `CC(=O)NC[C@H]1CN(c2ccc(C3=CCCCO3)c(F)c2)C(=O)O1` [Example 80, (S)-N-[[3-[3-Fluoro-4-(3,4-dihydro-2H-pyran-6-yl)phenyl]-2-oxo-5-oxazolidinyl]methyl]acetamide] has a melting point of 161 to 163 °C.
